Several values for one entry are separate records, joined by “and”; a condition that tells them apart may be missing. Equal entries are not always repeated.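 Five concentrations, 48 hours, 96-well plates. Here, GI50 denotes the concentration required for 50% inhibition of growth. The concentration for full growth arrest is given as TGI.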
Tests used:
Experiment in all cases: NCI anticancer screen, dose series, 48 h
[1] = tested on: A498 renal
[2] = tested on: A549 NSCLC
[3] = tested on: ACHN renal
[4] = tested on: CAKI-1 renal
[5] = tested on: CCRF-CEM leukemia
[6] = tested on: COLO 205 colon
[7] = tested on: DLD-1 colon
[8] = tested on: DMS 114 small cell lung
[9] = tested on: DMS 273 small cell lung
[10] = tested on: EKVX NSCLC
[11] = tested on: HCC-2998 colon
[12] = tested on: HCT-116 colon
[13] = tested on: HCT-15 colon
[14] = tested on: HL-60(TB) leukemia
[15] = tested on: HOP-18 NSCLC
[16] = tested on: HOP-92 NSCLC
[17] = tested on: HT29 colon
[18] = tested on: IGROV1 ovarian
[19] = tested on: K-562 leukemia
[20] = tested on: KM12 colon
[21] = tested on: KM20L2 colon
[22] = tested on: LOX IMVI melanoma
[23] = tested on: LXFL 529 NSCLC
[24] = tested on: M14 melanoma
[25] = tested on: MALME-3M melanoma
[26] = tested on: MOLT-4 leukemia
[27] = tested on: NCI-H226 lung
[28] = tested on: NCI-H23 lung
[29] = tested on: NCI-H460 lung
[30] = tested on: OVCAR-4 ovarian
[31] = tested on: OVCAR-5 ovarian
[32] = tested on: OVCAR-8 ovarian
[33] = tested on: RPMI-8226 leukemia
[34] = tested on: RXF 393 renal
[35] = tested on: RXF-631 renal
[36] = tested on: SF-268 CNS
[37] = tested on: SF-295 CNS
[38] = tested on: SF-539 CNS
[39] = tested on: SK-MEL-2 melanoma
[40] = tested on: SK-MEL-28 melanoma
[41] = tested on: SN12C renal
[42] = tested on: SNB-19 CNS
[43] = tested on: SNB-75 CNS
[44] = tested on: SNB-78 CNS
[45] = tested on: SR leukemia
[46] = tested on: SW-620 colon
[47] = tested on: TK-10 renal
[48] = tested on: U251 CNS
[49] = tested on: UACC-257 melanoma
[50] = tested on: UO-31 renal
[51] = tested on: XF 498 CNS
[52] = tested on: 786-0 renal
[53] = tested on: HOP-62 NSCLC
[54] = tested on: MDA-MB-435
[55] = tested on: NCI-H522 lung
[56] = tested on: OVCAR-3 ovarian
[57] = tested on: SK-MEL-5 melanoma
[58] = tested on: SK-OV-3 ovarian
[59] = tested on: UACC-62 melanoma

Structure (SMILES): CCOC(=O)/C=C(\C)c1ccc(Cl)cc1
- TGI [1]: > 100 µM
- TGI [2]: > 100 µM
- TGI [3]: > 100 µM
- TGI [4]: > 100 µM
- TGI [5]: > 100 µM
- TGI [6]: > 100 µM
- TGI [7]: > 100 µM
- TGI [8]: > 100 µM
- TGI [9]: > 100 µM
- TGI [10]: > 100 µM
- TGI [11]: > 100 µM
- TGI [12]: > 100 µM
- TGI [13]: > 100 µM
- TGI [14]: > 100 µM
- TGI [15]: > 100 µM
- TGI [16]: > 100 µM
- TGI [17]: > 100 µM
- TGI [18]: > 100 µM
- TGI [19]: > 100 µM
- TGI [20]: > 100 µM
- TGI [21]: > 100 µM
- TGI [22]: > 100 µM
- TGI [23]: > 100 µM
- TGI [24]: > 100 µM
- TGI [25]: > 100 µM
- TGI [26]: > 100 µM
- TGI [27]: 98.4 µM
- TGI [28]: > 100 µM
- TGI [29]: > 100 µM
- TGI [30]: > 100 µM
- TGI [31]: > 100 µM
- TGI [32]: > 100 µM
- TGI [33]: > 100 µM
- TGI [34]: > 100 µM
- TGI [35]: > 100 µM
- TGI [36]: > 100 µM
- TGI [37]: > 100 µM
- TGI [38]: > 100 µM
- TGI [39]: > 100 µM
- TGI [40]: > 100 µM
- TGI [41]: > 100 µM
- TGI [42]: > 100 µM
- TGI [43]: > 100 µM
- TGI [44]: > 100 µM
- TGI [45]: > 100 µM
- TGI [46]: > 100 µM
- TGI [47]: > 100 µM
- TGI [48]: > 100 µM
- TGI [49]: > 100 µM
- TGI [50]: > 100 µM
- TGI [51]: > 100 µM

Structure (SMILES): CC(C)S(=O)(=O)ON1C(=O)c2ccc(N(C)C)cc2C1=O
- GI50 [52]: 19.5 µM
- TGI [52]: 42 µM
- TGI [1]: > 60.7 µM
- TGI [2]: 58 µM
- TGI [3]: 33.7 µM
- GI50 [4]: 13.6 µM
- TGI [4]: 28.7 µM
- GI50 [5]: 0.29 µM
- TGI [5]: 1.06 µM and 9.21 µM
- GI50 [6]: 8.36 µM
- TGI [6]: 21.5 µM
- TGI [9]: 35.6 µM
- TGI [10]: 41.7 µM
- TGI [11]: 18 µM
- GI50 [12]: 2.44 µM
- TGI [12]: 9.13 µM and 30.8 µM
- TGI [13]: 32.3 µM
- GI50 [14]: 0.417 µM
- TGI [15]: 27.3 µM
- TGI [53]: > 63.4 µM
- GI50 [16]: 28 µM
- TGI [16]: 54.5 µM
- TGI [17]: > 58 µM
- TGI [18]: 43 µM
- GI50 [19]: 2.48 µM
- TGI [19]: 21.3 µM
- TGI [20]: 46.4 µM
- TGI [21]: 41.2 µM
- GI50 [22]: 9.69 µM
- TGI [22]: 29.6 µM
- TGI [23]: 25.1 µM
- TGI [24]: 40 µM
- GI50 [25]: 20.5 µM
- TGI [25]: 8.68 µM and 53.5 µM
- TGI [54]: 4.75 µM
- GI50 [26]: 0.4 µM
- TGI [26]: 4.57 µM and > 22.8 µM
- TGI [27]: > 60.9 µM
- TGI [28]: > 59.2 µM
- TGI [29]: 37.3 µM
- GI50 [55]: 1.79 µM
- TGI [55]: 4.42 µM and 3.85 µM
- TGI [56]: 24.5 µM
- GI50 [30]: 6.01 µM
- TGI [30]: 33.7 µM
- TGI [31]: 42 µM
- GI50 [32]: 5.05 µM
- TGI [32]: 6.47 µM and 63.7 µM
- GI50 [33]: 1.71 µM
- TGI [33]: 6.46 µM and 9.12 µM
- GI50 [34]: 5.34 µM
- TGI [34]: 17.9 µM
- TGI [35]: 19.7 µM
- TGI [36]: 66.8 µM
- TGI [37]: > 67.1 µM
- TGI [38]: 37.4 µM
- GI50 [39]: 19.1 µM
- TGI [39]: 45 µM
- TGI [40]: 56.1 µM
- GI50 [57]: 15.3 µM
- TGI [57]: 31.4 µM
- TGI [58]: > 78.6 µM
- TGI [41]: 34.3 µM
- TGI [42]: > 100 µM
- GI50 [43]: 8.66 µM
- TGI [43]: 39.3 µM
- TGI [44]: > 100 µM
- GI50 [45]: 0.752 µM
- TGI [45]: 3.18 µM and 9.78 µM
- GI50 [46]: 4.01 µM
- TGI [46]: 38.6 µM
- TGI [47]: 37.1 µM
- TGI [48]: 30.3 µM
- TGI [49]: 38.8 µM
- TGI [59]: 33.7 µM
- TGI [50]: 34.5 µM
- TGI [51]: 32.3 µM
